Test results published in patent US8987294B2, “Small molecule inhibitors of the α4-paxillin interaction” (The Regents of the University of California, priority 2009, dated 2015).
pIC50: −log10 of the molar value.

Experiments:
Jurkat T cells [1] = test: Cytotoxicity assay (CellTiter 96 Aqueous One Solution); format: cell-based; details: concentrations up to 100 μM for 24 h
Method: The cytotoxicity effect of compounds on cultivated cells was determined using the CellTiter 96® Aqueous One Solution Cell Proliferation Assay (Promega, Madison, Wis.) according to the manufacturer's guidelines.

[2] = target: T1, interaction of leupaxin with α4-integrin (Homo sapiens, UniProt O60711); test: ELISA, leupaxin binding to immobilized α4 tail
T1 construct: Biotinylated α4-integrin cytoplasmic tail was coated to the plates; 6xHis (N); biotin acceptor peptide […]; made in house; host or cells: Escherichia coli
T1 sequence (O60711 1-386): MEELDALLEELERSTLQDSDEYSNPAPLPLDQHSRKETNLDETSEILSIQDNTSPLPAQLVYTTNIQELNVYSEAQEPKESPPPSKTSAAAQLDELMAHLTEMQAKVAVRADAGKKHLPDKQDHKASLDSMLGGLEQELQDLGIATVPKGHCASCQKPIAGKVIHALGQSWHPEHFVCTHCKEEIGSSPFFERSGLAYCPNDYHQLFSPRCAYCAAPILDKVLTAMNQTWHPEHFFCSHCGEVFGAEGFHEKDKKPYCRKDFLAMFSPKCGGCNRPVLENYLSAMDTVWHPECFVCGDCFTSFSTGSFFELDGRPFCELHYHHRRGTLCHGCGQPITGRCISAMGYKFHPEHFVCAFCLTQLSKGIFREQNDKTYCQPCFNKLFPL
Method: (§1) Thermo Electron High Binding 96 or 384 well plates were coated with 1 μg/ml neutravidin (Pierce) in 0.05M NaHCO3 pH 9.5 over night at 4° C. After blocking with 1% heat inactivated BSA in PBS for 1 hour at room temperature, plates were incubated with 1 μg/ml of recombinant αIIb-tail or α4-tail FAT or Git-1 in 1% BSA in PBS for one hour at room temperature. Plates were washed twice with 0.2% Tween in PBS to remove unbound protein and incubated with 10 μg/ml HA-tagged leupaxin or paxillin in 0.2% Tween/1% BSA in PBS in the presence or absence of small molecule compounds (5 mM DMSO stock solutions). […] Plates were washed twice and bound leupaxin or paxillin was detected by incubating with the first antibody (12CA5 ascites, 1:10,000 in 0.2% Tween/1% BSA in PBS) for 1 hour at room temperature and then with the secondary antibody (HPR-conjugated anti mouse, Biosource, 1:1,000 in 0.2% Tween, 1% BSA, PBS for 1 hour at room temperature. Binding was quantified after addition of ECL solution on a Victor luminescence plate reader. 0% inhibition control was measured with leupaxin and no compound and 100% inhibition control (background) was measured with no leupaxin and no compound. Each well was duplicated and percent inhibition was averaged. (FIG. 1A)
Inhibition of the α4 leupaxin interaction was measured using the above described ELISA assay. Biotinylated α4-integrin cytoplasmic tail was coated to the plates and incubated with increasing concentrations of leupaxin in the presence of different concentrations of inhibitor or no inhibitor. The data were fitted to equations for models of competitive, non-competitive, uncompetitive of mixed inhibition using Graph Pad Prism 5.0 to test which model fits the best.

Jurkat T cells [3] = test: Spreading assay, Jurkat T cells on CS-1; format: cell-based; details: 180 minutes after plating on CS-1
Method: (§2) Cell spreading was performed as described (11, 34). Briefly, CHO cells or Jurkat cells resuspended in Dulbecco's modified Eagle's medium or RPMI 1640, respectively, containing 0.5% fetal bovine serum and 0.2% BSA were plated on coverslips coated with 3 μg/ml GST-CS-1 in 12 well plates in the presence or absence of the small molecule inhibitor. […] The cell area was measured and analyzed using the ImageJ software. At least three independent experiments were performed and in each experiment at least 30 cells were analyzed.

[4] = target: T2, interaction of paxillin with α4-integrin (Homo sapiens, UniProt P49023); test: ELISA, paxillin binding to immobilized α4 tail; details: 10 μg/ml paxillin; read-out: IC50, inhibition of paxillin binding to α4-integrin
T2 construct: 6xHis (N); biotin acceptor peptide […]; made in house; host or cells: Escherichia coli
T2 sequence (P49023 whole entry): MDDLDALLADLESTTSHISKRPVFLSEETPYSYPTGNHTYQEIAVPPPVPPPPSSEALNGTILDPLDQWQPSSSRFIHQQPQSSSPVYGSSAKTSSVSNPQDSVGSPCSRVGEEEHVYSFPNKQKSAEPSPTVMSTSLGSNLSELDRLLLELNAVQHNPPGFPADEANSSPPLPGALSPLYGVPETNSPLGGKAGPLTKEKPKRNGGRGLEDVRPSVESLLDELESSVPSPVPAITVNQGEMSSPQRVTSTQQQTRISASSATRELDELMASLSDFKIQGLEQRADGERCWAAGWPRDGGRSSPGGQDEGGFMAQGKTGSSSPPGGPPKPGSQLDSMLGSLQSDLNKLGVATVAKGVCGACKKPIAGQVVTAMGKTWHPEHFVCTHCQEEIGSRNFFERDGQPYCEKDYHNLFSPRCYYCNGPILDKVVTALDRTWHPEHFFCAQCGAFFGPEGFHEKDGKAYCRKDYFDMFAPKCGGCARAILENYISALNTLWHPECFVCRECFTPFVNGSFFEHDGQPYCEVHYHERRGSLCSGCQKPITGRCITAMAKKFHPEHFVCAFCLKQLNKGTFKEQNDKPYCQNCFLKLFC
Method: as §1

[5] = test system: CHO wildtype cells that do not express α4; test: Spreading assay, CHO wildtype cells on fibronectin; format: cell-based, Chinese Hamster; details: plated on fibronectin; data not shown
Method: as §2, with “containing 0.5% fetal bovine serum and 0.2% BSA were plated on coverslips coated with 3 μg/ml GST-CS-1 in 12 well plates in the” left out

[6] = target: interaction of GIT-1 with paxillin (Homo sapiens, UniProt P49023); test: ELISA, paxillin binding to immobilized Git-1; details: read-out: IC50, inhibition of interaction of GIT-1 with paxillin
interaction of GIT-1 with paxillin, sequence (P49023 whole entry): as above
Method: as §1

[7] = target: T3, native paxillin and α4-integrin (Homo sapiens, UniProt P49023); test: Coimmunoprecipitation of α4 with paxillin from Jurkat T cells; format: binding; details: anti-biotin blot
T3 construct: endogenous in cells; host or cells: Jurkat T cells
T3 sequence (P49023 whole entry): as above
Method: For endogenous Coimmunoprecipitation experiments, Jurkat T-cells were washed in ice-cold PBS and incubated in 1.6 mM Sulfo-NHS-Biotin (Pierce, Chemical Co.) for 30 minutes at room temperature. Excess biotin was quenched and washed from the cells with PBS/Glycine. Cell lysates were then prepared with lysis buffer containing 20 mM Tris, pH 7.4, 150 mM NaCl, 10 mM EDTA, 1% Triton X-100, 0.05% Tween 20 and a protease inhibitor cocktail (Roche Diagnostics Corp.). Lysate containing 200 μg total cell protein was immunoprecipitated using 2 μg rabbit anti paxillin (RB-4358). Immunoprecipitated proteins were separated by SDS-PAGE (8% Bis-Tris, denaturating and reducing) and transferred to nitrocellulose membranes. Precipitated, biotinylated proteins were detected using HRP-Streptavidin (1:10,000).

C57B1/6 mice = test: Thioglycollate-induced peritonitis; format: in vivo
Method: Male C57B1/6 mice 5-6 weeks old were injected intraperitoneally with 1 ml sterile 4% (wt/vol) thioglycollate (Sigma-Aldrich). Mice were injected with 16.5 mg/kg 6-B345TTQ, 6-234TTQ or the equal volume of vehicle only every 8-12 hours. At various time points after injection, mice were sacrificed and subjected to peritoneal lavage with 4 ml PBS containing 5 mM EDTA and 1% BSA. Total leukocytes in lavage samples were enumerated with a hemocytometer. Cells (1×10^5) were attached to glass slides with a Cytospin4 instrument (ThermoSharidon) and stained with modified Wright-Giemsa stain. Differential cell counts were performed on 5 individual fields, each containing 100 cells by light microscopy.

[8] = target: T4, interaction of FAT with paxillin (Homo sapiens, UniProt P49023); test: ELISA, paxillin binding to immobilized FAT
T4 construct: Recombinant 6×His-FAT, the focal adhesion targeting domain of pp125^FAK; 6xHis (N); made in house; host or cells: E. coli BL21(DE3)pLysS
T4 sequence (P49023 whole entry, the tested form may be a part): as the sequence (P49023 whole entry) above
Method: as §1

THP-1 cells = test: Modified Boyden chamber migration, THP-1 cells on CS-1; format: cell-based; details: Homo sapiens, 3 hours, read-out: inhibition of monocyte migration
Method: (§3) Cell migration was assayed in a modified Boyden chamber assay system as described previously (8). For Jurkat T cell migration, transwell (Costar) polycarbonate membranes containing 3-μm pores were coated with 10 μg/ml CS-1, an α4 integrin binding fragment of fibronectin or 20 μg/ml ICAM in 0.1M NaHCO3, pH 8.0 overnight at 4° C. Membranes were blocked with 2% BSA in PBS for 30 minutes at room temperature. 2.0×10^5 Jurkat T cells in RPMI 1640 with 10% fetal bovine serum were added to the top chamber. Stromal-derived factor-1α (SDF-1α, R&D Systems, Minneapolis, Minn.) at a final concentration of 15 ng/ml in RPMI 1640 with 10% fetal bovine serum was added to the bottom chamber. Cells were allowed to migrate for 5 hours at 37° C. Cells in the bottom chamber were enumerated with a hemacytometer. Small molecule inhibitors were added to the top and bottom chamber in the indicated concentrations.
THP-1 cells were cultured in RPMI1640 containing 0.1% fetal bovine serum for 16 hours before 1×10^6 cells were added to the top chamber of transwells with CS1-coated membranes that contained 5-μm pores and allowed to migrate for 3 hours towards RPMI containing 0.1% fetal bovine serum.

Jurkat T cells [9] = test: Modified Boyden chamber migration, Jurkat T cells on CS-1; format: cell-based; details: Homo sapiens, 5 hours towards SDF-1α, read-out: inhibition of T-cell migration
Method: as §3

CHO-S998A cells = test: Spreading assay, CHO-S998A cells on CS-1; format: cell-based, Chinese Hamster; details: CS-1 coated cover slips, 45 minutes
Method: as §2

Jurkat T cells [10] = test: Modified Boyden chamber migration, Jurkat T cells on ICAM-1 (αLβ2-mediated); format: cell-based
Method: as §3

[11] = target: T5, interaction of leupaxin with the focal adhesion targeting sequence of pp125^FAK (FAT) (Homo sapiens, UniProt O60711); test: ELISA, leupaxin binding to immobilized FAT; details: concentrations up to 100 μM
T5 construct: Recombinant 6×His-FAT, the focal adhesion targeting domain of pp125^FAK; 6xHis (N); made in house; host or cells: E. coli BL21(DE3)pLysS
T5 sequence (O60711 1-386): T1 sequence (O60711 1-386)
Method: as §1

[12] = target: T6, interaction of GIT-1 with leupaxin (Homo sapiens, UniProt O60711); test: ELISA, leupaxin binding to immobilized Git-1; details: read-out: IC50, inhibition of interaction of GIT-1 with leupaxin
T6 sequence (O60711 1-386): T1 sequence (O60711 1-386)
Method: as §1

[13] = test system: Jurkat T cells expressing a mutated α4-integrin (α4(Y991A)); test: Modified Boyden chamber migration, JB4-Y991A cells; format: cell-based
Method: as §3

Structure (SMILES): COc1cc(C2CC(=O)Nc3c2cc(Br)c2ccccc32)cc(OC)c1OC (centres unmarked) [6-B345TTQ]
- cytotoxicity (cell viability) (Jurkat T cells [1]): not cytotoxic
- pIC50 ([2]; 10 μg/ml leupaxin, read-out: IC50, inhibition of leupaxin binding to α4-integrin): 4.74
- nature of inhibition of the α4 leupaxin interaction ([2]; increasing leupaxin, various inhibitor concentrations, model fit Graph Pad Prism 5.0): competitive inhibitor
- α-value of mixed model of inhibition ([2]; mixed model fit): ~2.958×10^12
- spreading of Jurkat T cells (Jurkat T cells [3]): dose dependent increase
- pIC50 [4]: 4.97
- spreading of CHO wildtype cells [5]: not increased
- pIC50 [6]: 5.62
- amount of α4 co-immunoprecipitated with paxillin [7]: decreased with increasing concentrations
- reduction of infiltration of peritoneal monocytes/macrophages (C57B1/6 mice; 16.5 mg/kg every 8-12 hours i.p., 48 hours after thioglycollate): 50%
- recruitment of lymphocytes to the peritoneum (C57B1/6 mice; 16.5 mg/kg every 8-12 hours, 48 hours and 72 hours after thioglycollate): reduction was not statistically significant
- recruitment of neutrophils (C57B1/6 mice; 16.5 mg/kg every 8-12 hours, vs vehicle): no difference
- inhibition of the interaction of FAT with paxillin [8]: did inhibit
- inhibition at 50 µM (THP-1 cells): 52.6%
- inhibition at 50 µM (Jurkat T cells [9]): 56.4%
- spreading of CHO-S998A cells (CHO-S998A cells): increased the spreading of CHO-S998A cells to a level comparable with CHO-S998D cells
- effect on αLβ2-mediated Jurkat T cell migration on ICAM-1 (Jurkat T cells [10]): not significantly reduced
- effect on the binding of FAT to leupaxin [11]: no effect
- pIC50 [12]: 4.60
- residual α4-dependent migration of α4(Y991A) Jurkat T cells [13]: not further decreased
